Patent publication US8034572B2, “Receptor for GDNF family ligands” (priority 2006, dated 2011)

How the values were obtained:
[1] = target: T1, GDNF (Homo sapiens, UniProt P39905); assay: Scintillation proximity assay: tritium labeled heparin binding to and displacement from GDNF; details: FIG. 11
T1 construct: purchased PeproTech, Ltd. or R&D Systems, Inc
T1 sequence (P39905 78-211 limits assumed): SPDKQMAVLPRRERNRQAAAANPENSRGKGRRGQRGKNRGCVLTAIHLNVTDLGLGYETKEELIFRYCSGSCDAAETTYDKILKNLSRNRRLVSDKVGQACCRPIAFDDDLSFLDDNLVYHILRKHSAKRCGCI
From the text: The scintillation proximity assay (SPA) technology (Amersham) was used to assay the ability of the low molecular weight molecule (namely low molecular weight heparin from Sigma) to displace tritium labeled heparin from GDNF.
Small beads filled with scintillation liquid are covalently linked with anti-mouse antibodies that can capture mouse anti-FLAG-tag antibodies. In turn, GDNF that we produced by ourselves has a FLAG-tag on its N-terminus. Thus, GDNF is in close proximity to the scintillation beads. The tritium labeled high molecular weight heparin (a kind gift from Ulf Lindahl, Sweden) is administered in the surrounding solution. Labeled heparin binds GDNF, which is sitting on scintillation beads and induces light that is detected. […] This assay can be easily adopted to high-throughput format.
To test the ability of small molecules to displace heparin or heparan sulfates from GDNF they are simply mixed at different concentrations with the labeled heparin and the decrease of the signal is monitored. It does positively correlate with the concentration of the cold heparin. We did it in our study with low molecular weight heparin and got IC50 of approximately 10 nM, which correlates with other binding data (FIG. 11).

[2] = target: T1, GDNF; assay: SPR: direct binding of heparin or desulfated heparins to GDNF cuvette; details: apparent Kd from equilibrium response, read-out: Kd1
Procedure: (§1) Specifically desulfated heparins (Takano et al., 1998) were used to assess the involvement of different sulfate groups in the GDNF-heparin interaction by following direct binding to GDNF cuvette, or by competing out GDNF binding to the heparin-BSA cuvette. Dissociation constants were determined from direct binding using increasing GDNF concentrations and by fitting the data to R=(Rmax*C)/(Kd+C) for heparin. For desulfated heparins, the best fit was achieved using equation R=(Rmax1*C)/(Kd1+C)+(Rmax2*C)/(Kd2+C), where Kd1 and Kd2 are apparent dissociation constants derived for two heparin sites of different affinities with maximum equilibrium response Rmax1 and Rmax2, respectively.

[3] = target: T1, GDNF; assay: SPR: competition of GDNF binding to heparin-BSA cuvette by heparin and desulfated heparins; details: competing out GDNF binding to heparin-BSA cuvette
Procedure: as §1

[4] = target: T2, GDNF-syndecan-3 complex (UniProt P33671+P39905); assay: Chemical cross-linking of ^125I-GDNF to C6 cells and immunoprecipitation with anti-syndecan-3; assay type: cell-based, rat; details: heparin 1 μg/ml; HB-GAM 150-fold molar excess; added with ^125I-GDNF
T2 construct: the rat glioma C6 cell line, which expresses syndecan-3; endogenous in cells; host or cells: rat glioma C6 cells (syndecan-3); GDNF purchased from PeproTech or R&D Systems and iodinated
T2 sequence (P33671 45-442, one chain of several): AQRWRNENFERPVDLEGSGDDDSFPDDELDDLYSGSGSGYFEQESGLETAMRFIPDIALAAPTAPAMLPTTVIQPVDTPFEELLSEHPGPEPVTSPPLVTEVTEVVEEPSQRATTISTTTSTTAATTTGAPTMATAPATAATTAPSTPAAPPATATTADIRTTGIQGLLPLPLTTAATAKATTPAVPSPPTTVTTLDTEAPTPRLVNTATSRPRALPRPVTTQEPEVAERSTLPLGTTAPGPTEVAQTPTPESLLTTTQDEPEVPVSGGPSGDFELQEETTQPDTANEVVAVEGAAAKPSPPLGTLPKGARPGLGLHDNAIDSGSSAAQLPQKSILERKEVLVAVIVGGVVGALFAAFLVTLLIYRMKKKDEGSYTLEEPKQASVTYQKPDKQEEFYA
Procedure: Glioma C6 cells were plated on 6-well plates and grown to 70% confluency. Cells were incubated with 1 nM ^125I-GDNF for 2 hours in binding buffer (Dulbecco's modified Eagle's medium, 0.2% BSA and 15 mM Hepes, pH 7.2) on ice. Unbound ligand was removed by washing three times with ice-cold PBS. The chemical cross-linker ethyl-dimethyl-aminopropyl-carbodimide (EDAC) supplemented with N-hydroxysuccinimide (NHS) (Sigma) was incubated with cells for 20 min at room temperature in PBS. The reaction was quenched with TBS for 15 min and cells were lysed in lysis buffer (TBS, 1% Triton X-100, 1% NP-40, 2 mM EDTA, 1 mM PMSF and Complete protease inhibitor mixture from Roche Molecular Biochemicals). Cell lysates were immunoprecipitated with anti-syndecan-3 antibodies (Nolo et al., 1995) and resolved on 7.5% SDS-PAGE. Autoradiography was performed with BAS1500 (Fuji). For heparinase III or PI-PLC treatment cells were incubated with 10 mU/ml heparinase III or with 1 U/ml PI-PLC, respectively for one hour at 37° C., 5% CO2 before ^125I-GDNF addition.

[5] = coinfusion into rat striatum; cited from earlier work

Row | Substance | IC50 [1] [nM] | Kd [2] [nM] | IC50 [3] [ng/mL] | effect on ^125I-GDNF binding to syndecan-3 on C6 cells [4] | biodistribution of coinfused GDNF, NRTN or ARTN [5]
1 | low molecular weight heparin | ~10 |  |  |  | 
2 | heparin |  | 9.5 | 0.06 | abolished ^125I-GDNF binding to syndecan-3 almost completely | markedly increased their biodistribution
